Here are results for 1 compound from patent US11571480B2, “Multi-ligand drug conjugates and uses thereof” (priority 2015, dated 2023).

The subject of series [1] is human nasopharyngeal cancer cell line KB. In words: Cytotoxicity test of conjugate LDC13B. Type of series: cell-based. The protocol: Culture medium: RPMI 1640 Medium, no folic acid
1) human nasopharyngeal cancer cell line KB, human colon carcinoma HCT-116, human prostatic cancer cell PC-3, human gastric cancer cell line GTL-16, human endometrial cancer cell HEC-1A, and human gastric cancer cell N87 were incubated at 37° C., 5% CO2 in RPMI 1640 medium containing 10% fetal bovine serum, the cells were passaged every 2-3 days.
2) human nasopharyngeal cancer cell line KB, human colon carcinoma HCT-116, human prostatic cancer cell PC-3, human gastric cancer cell line GTL-16, human endometrial cancer cell HEC-1A, and human gastric cancer cell N87 were plated at 1×10^3 cells per well (96-well plate) and incubated for 8-12 h at 37° C., 5% CO2.
3) Stock solutions of LDC conjugates or control were prepared in PBS solution. 100 μL/well of serially diluted LDC conjugates or control was added to the cells in the plate and incubated for 15-30 min at 37° C., 5% CO2. The culture medium in the wells was then removed by aspiration and the cells were incubated in fresh culture medium without conjugates (150 μL/well) for 2-3 days at 37° C., 5% CO2.
4) CellTiter 96® Aqueous One Solution Cell Proliferation Assay (Promega) was added to each well to measure the amount of […] cells, and the plate was incubated in an incubator for 1 h at 37° C., 5% CO2.
5) the plate was read at 490 nm on a microplate reader, and the cell survivals were compared for cells with or without the treatment of LDC conjugates. The LDC drug concentrations that are required for 50% cell death (IC50 values) were determined.

The subject of a further series is Transplanted H460 tumor. In words: Inhibitory assay of conjugate LDC13B against xenograf tumors. Type of series: in vivo, nude mice. Conditions: for Body weight of mice / Tumor size: H460 tumor. The protocol: Animal: nude mice, aged 6-8 weeks, female
1) human large cell lung cancer cell H460 were incubated at 37° C., 5% CO2 in IMDM medium containing 10% fetal bovine serum, the cells were passaged every 2-3 days.
2) generation of tumors: 7×10^6 tumor cells were injected subcutaneously into the back of nude mice, and the mice were grouped for treatment after the tumor sizes were as large as about 200 mm^3.
3) treatment: 3 mice/group, treated with LDC13B as well as controls MMAE and PBS with doses of 2.5 and 5 mg/kg every 3 days, four injections.
4) the physical performance, body weights and tumor sizes of the animals were monitored. The number of animal death was recorded during the experiment.

The mark [2] stands for this setting: 2.5 mg/kg, 3 days after Injection 1.
[3] abbreviates: 2.5 mg/kg, 3 days after Injection 2.
The mark [4] stands for this setting: 2.5 mg/kg, 3 days after Injection 3.
Where [5] appears, read: 2.5 mg/kg, 3 days after Injection 4.
Setting [6] is: 5 mg/kg, 3 days after Injection 1.
The mark [7] stands for this setting: 5 mg/kg, 3 days after Injection 2.
[8] abbreviates: 5 mg/kg, 3 days after Injection 3.
[9] abbreviates: 5 mg/kg, 3 days after Injection 4.

Regarding `CC[C@H](C)[C@@H]([C@@H](CC(=O)N1CCC[C@H]1[C@H](OC)[C@@H](C)C(=O)N[C@H](C)[C@@H](O)c1ccccc1)OC)N(C)C(=O)[C@@H](NC(=O)[C@H](C(C)C)N(C)C(=O)OCc1ccc(NC(=O)[C@H](CCCNC(N)=O)NC(=O)[C@@H](NC(=O)CCCCCN2C(=O)CC(SC[C@H](NC(=O)CC[C@H](NC(=O)c3ccc(NCc4cnc5[nH]c(N)nc(=O)c5n4)cc3)C(=O)O)C(=O)NCCCC[C@@H](NC(=O)[C@H](Cc3ccc(O)cc3)NC(=O)[C@H](CO)NC(=O)[C@H](Cc3c[nH]c4ccccc34)NC(=O)[C@H](Cc3c[nH]cn3)NC(=O)[C@@H]3CCC(=O)N3)C(=O)N[C@@H](CC(C)C)C(=O)N[C@@H](CCCNC(=N)N)C(=O)N3CCC[C@H]3C(=O)NCC(N)=O)C2=O)C(C)C)cc1)C(C)C` (some centres unmarked) [LDC13B], the “more potent than either of the single-ligand drug conjugates LDC1 and LDC13A” value in series [1] is listed as 2-10 fold. In addition, the “tumor response (in words)” value in the series on Transplanted H460 tumor (H460, 2.5 mg/kg dose) is “shrank rapidly”; in the series on Transplanted H460 tumor (H460, after four injections at 5 mg/kg) it was “completely disappeared”. For the same compound, the “Body weight of mice” value in the series with Transplanted H460 tumor (setting [2]) worked out at 22.73 g; in the series with Transplanted H460 tumor (setting [3]) it was 22.65 g; in the series on Transplanted H460 tumor (setting [4]), 22.47 g; in the series on Transplanted H460 tumor (setting [5]), 21.76 g; with Transplanted H460 tumor (2.5 mg/kg, Before Injection), 22.7 g; with Transplanted H460 tumor (setting [6]), 18.36 g. In addition, the “Body weight of mice” value in the series on Transplanted H460 tumor (setting [7]) amounted to 19.65 g; in the series on Transplanted H460 tumor (setting [8]) it was 18.21 g; in the series on Transplanted H460 tumor (setting [9]), 18.22 g; in the series with Transplanted H460 tumor (5 mg/kg, Before Injection) it was 20.95 g. Besides, the Tumor size came out at 384 mm^3 in the series with Transplanted H460 tumor (setting [2]); 384 mm^3 in the series on Transplanted H460 tumor (setting [3]); 144 mm^3 with Transplanted H460 tumor (setting [4]); 144 mm^3 in the series with Transplanted H460 tumor (setting [5]); 294 mm^3 with Transplanted H460 tumor (2.5 mg/kg, Before Injection); 144 mm^3 with Transplanted H460 tumor (setting [6]). Moreover, the Tumor size in the series on Transplanted H460 tumor (setting [7]) is reported as 40 mm^3; in the series on Transplanted H460 tumor (setting [8]), 18 mm^3; in the series with Transplanted H460 tumor (setting [9]) it was 13.5 mm^3; in the series on Transplanted H460 tumor (5 mg/kg, Before Injection), 196 mm^3.
